The text below walks through data of US5219867A, “Platelet aggregation inhibitory agents” (priority 1992, dated 1993).

In this assay the test system is human blood platelets. Nature of the assay: In vitro inhibition of ADP-induced human platelet aggregation (platelet-rich plasma, aggregometer). Format: cell-based. Particulars: for IC50: Homo sapiens, Platelet; for Potency in inhibiting aggregation relative to rac-I: in vitro platelet aggregation. As to the method: Procedure for Determining In Vitro Platelet Aggregation-Inhibitory Activity. Adenosine diphosphate (ADP) was used to induce platelet aggregation and was utilized as the sodium salt. A 10 mM stock solution was prepared fresh before each use in modified Tyrode's buffer and working dilutions were prepared with modified Tyrode's buffer immediately prior to use. The buffer contained NaCl (137.00 mM), KCl (2.70 mM), NaHCO3 (11.90 mM), NaH2 PO4 H2 O (0.36 mM) and glucose (5.60 mM) in redistilled water. Adjustment to pH 7.4 was effected by addition of 1N HCl.
The blood was transferred into plastic centrifuge tubes containing 3.2% sodium citrate (blood/citrate ratio 8:1) and centrifuged at 120Xg for 15 minutes at 23° C., yielding platelet-rich plasma (PRP); platelet-poor-plasma (PPP) was obtained by centrifugation of citrated whole blood at 1,100Xg for 15 min at 23° C. The platelet count of PRP was determined and adjusted to a final count of 300,000 platelet per mm^3 by dilution with autologous PPP. […] The plasma so obtained was transferred using a 1.0 ml Centaur pipette into a 50 ml polyethylene centrifuge tube. In order to maintain plasma pH in the appropriate range, the air in the tubes are displaced gently (2 minutes) with a 5% (CO2 -95% air (v/v) mixture and the tube capped. The plasma was maintained at 37° C. in a water bath until used in the aggregation experiments.
Assays of platelet aggregation were performed at least in duplicate, using plasma acquired from different donors, employing a method developed by Quintana, et al. (Quintana, et al., Relationships Between the Chemical Constitution of Carbamoylpiperidines and Related Compounds, and Their Inhibition of ADP-Induced Human Blood Platelet Aggregation, Thromb. Res. Vol. 22, Pages 665-680, 1981); Quintana, et al., Effects of Ethanol and of Other Factors on ADP-Induced Aggregation of Human Blood Platelets in Vitro, Thromb. Res., Vol. 20, Pages 405-415, 1980) (cf. Born, Nature, Vol. 194, Pages 927-929, 1962) and Mustard, et al., J. Lab. Clin. Med., Vol. 64, Pages 548-559, 1964).
Initially, in each experiment, 0.45-ml aliquots of PRP were placed in siliconized cuvettes and stirred (1,100 rpm) in the aggregometer at 37° C. to ascertain the absence of spontaneous aggregation. Appropriate ADP solutions (50 μl) were subsequently injected using a Hamilton microliter syringe to determine the minimal concentration eliciting maximal biphasic aggregation. […] In each case, the concentration of ADP so determined was used in eliciting aggregation throughout each specific set of aggregometric evaluations.
0.5 μl of a solution of the evaluant compound in redistilled 95% ethanol was injected into a stirred ([…]) 0.4-ml aliquot of plasma in a siliconized cuvette in the aggregometer-well (37° C). After 15 seconds, the cuvette was transferred to an incubator (also at 37° C.) and the contents held at this temperature, without stirring, until 2 minutes postinjection. The cuvette was then returned to the aggregometer-well, a base-line being recorded for 2 minutes to detect any spontaneous aggregation. At exactly 4 minutes after injection of the evaluant solution, 50 μl of the appropriate ADP solution was injected and aggregation recorded for 5.5 minutes. Evaluants were studied at least 4 different concentrations. Control experiments (ethanol in a final concentration of 0.095% v/v) were performed in conditions parallel with those involving the respective evaluants, and were initiated either 1 minute prior to or 1 minute after the start of experiments employing the test compounds. This permitted injections to be made precisely at the specified times.

Entries after “also recorded” stand apart in the source; their conditions may differ. Structures can show the parent of a compound that is named as a salt. Where two headings read alike, the source gives them in different places.

In the case of `CCN(CC)C(=O)C1CCCN(Cc2ccc(CN3CCCC(C(=O)N(CC)CC)C3)cc2)C1` (racemic) [Compound I, α-α'-Bis[3-(N,N-diethyl-carbamoyl)piperidino]-p-xylene dihydrobromide], the IC50 by setting is: (read-out: IC50 (compound concentration which inhibits ADP-induced platelet aggregation by 50%) ± S.E., racemic compounds, ADP-induced) 44.5 ± 12.7 µM; (read-out: Ia50 (compound concentrations affecting 50% inhibition of aggregation) ± S.E., Table II, ADP-induced, n = 5 for (0)I and 6 for all others) 44.5 ± 127 µM; (read-out: Ia50 ± S.E. ADP-Induced, table 3, ADP-induced (n = 5-6)) 44.5 µM.

On to `CCN(CC)C(=O)C1CCCN(Cc2ccc(CN3CCCC(C(=O)N(CC)CC)C3)cc2)C1` (single isomer, unassigned) [IC, α-α'-Bis(3-N,N-diethylcarbamoyl)piperidino]-p-xylene dihydrobromide], for which the “Potency in inhibiting aggregation relative to (-)-I (antipode)” value (ADP as agonist, in vitro) stood at 15 times. Also, the IC50 (Table II, ADP-induced, n = 5 for (0)I and 6 for all others, read-out: Ia50 (compound concentrations affecting 50% inhibition of aggregation) ± S.E.) was determined as 15.3 ± 3.9 µM; the IC50 (table 3, ADP-induced (n = 5-6), read-out: Ia50 ± S.E. ADP-Induced) stood at 15.3 ± 3.9 µM. Further, the “Activity as a platelet aggregation inhibitor, in words” value (as compared to racemic (I) / other stereoisomers, listed as (+) enantiomer, dihydrobromide) is reported as “unexepectedly superior activity; also recorded: possesses most of the therapeutic activity”. Moreover, the “Potency in inhibiting aggregation relative to rac-I” value is, setting by setting: (dihydrobromide) “three times more potent”; (listed as (+) enantiomer of Compound I, dihydrobromide) “two to three times more potent”.
